This note sets out measurements from patent US11866518B2, “Bicyclic peptide ligands specific for TSLP” (BicycleTx Limited, priority 2020, dated 2024).

Where two headings read alike, the source gives them in different places. *1 amine or outer side, *2 acyl side, *3 side chain or, on linkers, in order; H or OH if unused. Where a SMILES comes first, the peptide text is derived from it. Bridges are numbered along the chain shown (N, C = ends). TATA = O=C(CC[*:1])N1CN(C(=O)CC[*:2])CN(C(=O)CC[*:3])C1

For data set [1], the target named is T1, TSLP (Homo sapiens, UniProt Q969D9). The experiment in a line: Human peripheral blood mononuclear cell assay (TSLP-induced CCL17/TARC). The note with it: read-out: CCL17 % Inhibition @ 10 μM, […] TSLP. On the set-up: host or cells: added to human PBMCs from healthy donors. Type of data set: cell-based. In short, it runs like this:
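Healthy-donor PBMCs (3 million cells/mL, RPMI + 10% FCS) received bicycle peptide or vehicle (0.1% DMSO) premixed 30 min at rt with TSLP, then were incubated 24 h at 37 °C, 10% CO2. Supernatant CCL17/TARC quantified by MSD.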

Data set [2] has as its target T1, TSLP. The experiment in a line: Human TSLP Surface Plasmon Resonance (SPR) binding assay. Also noted: The resulting construct spCD33-6×HN-TEV-hTSLP(29-159)-Avi; 6xHN tag with TEV site (N, cleaved yes); made in house; host or cells: Expi293F cells. Particulars: biotinylated human TSLP immobilized on streptavidin chip; 20° C.; steady-state or kinetic 1:1 fit; read-out: hTSLP SPR Kd.

The conditions of data set [3]: the molecule shown is the open-chain precursor.
[4] abbreviates: crosslinker bond, 29-membered ring, TATA/NH4HCO3, MeCN/H2O.

T1 sequence (Q969D9 29-159): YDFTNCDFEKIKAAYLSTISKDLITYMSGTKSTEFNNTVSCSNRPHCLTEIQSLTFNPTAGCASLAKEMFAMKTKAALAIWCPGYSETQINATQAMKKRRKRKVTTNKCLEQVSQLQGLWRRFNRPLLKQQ

Broadly, the inhibition is the relative decrease from the control value, in per cent. As usually defined, the Kd is the equilibrium constant for the complex coming apart. As for `CC(C)C[C@@H]1NC(=O)[C@H](Cc2c[nH]c3ccccc23)NC(=O)[C@H](Cc2c[nH]c3ccccc23)NC(=O)[C@H](CC(=O)O)NC(=O)[C@H](CO)NC(=O)[C@@H]2CSCCC(=O)N3CN(CN(C3)C(=O)CCSC[C@H](NC(=O)[C@@H]3CCCN3C(=O)[C@H](C)NC(=O)[C@@H](N)CCCNC(=N)N)C(=O)N3CCC[C@H]3C(=O)N[C@@H](CC(=O)O)C(=O)N[C@@H](CC(C)C)C(=O)N[C@@H](CC(=O)O)C(=O)N3CCC[C@H]3C(=O)N[C@@H](Cc3c[nH]c4ccccc34)C(=O)N[C@@H]([C@@H](C)O)C(=O)N2)C(=O)CCSC[C@@H](C(=O)N[C@@H](C)C(N)=O)NC1=O` [Example 187, RAP-(SEQ ID NO: 136)-A] (H-RAPCPDLDPWTCSDWWLCA-NH2; linker 4-12-18 via TATA; N-terminus and C-terminus assumed), the inhibition at 10 µM on TSLP [1] is 11%. For the same compound, the dissociation constant (Kd) on TSLP [2] stood at 86 nM.

Consider `CC(C)C[C@@H]1NC(=O)[C@H](Cc2c[nH]c3ccccc23)NC(=O)[C@H](Cc2c[nH]c3ccccc23)NC(=O)[C@H](CO)NC(=O)[C@H](CC(=O)O)NC(=O)[C@@H]2CSCCC(=O)N3CN(CN(C3)C(=O)CCSC[C@H](NC(=O)[C@@H](NC(=O)[C@H](Cc3c[nH]cn3)NC(=O)[C@@H](N)CO)C(C)C)C(=O)N[C@@H](CCCNC(=N)N)C(=O)N[C@@H](CC(=O)O)C(=O)N[C@@H](CC(C)C)C(=O)N[C@@H](CC(=O)O)C(=O)N3CCC[C@H]3C(=O)N[C@@H](Cc3c[nH]c4ccccc34)C(=O)N[C@@H]([C@@H](C)O)C(=O)N2)C(=O)CCSC[C@@H](C(=O)N[C@@H](C)C(N)=O)NC1=O` [Example 188, SHV-(SEQ ID NO: 137)-A] (H-SHVCRDLDPWTCDSWWLCA-NH2; linker 4-12-18 via TATA; N-terminus and C-terminus assumed), for which the inhibition at 10 µM at TSLP [1] was -4%. Moreover, the dissociation constant Kd on TSLP [2] was determined as 72 nM.

In the case of `CC(C)C[C@H](NC(=O)CNC(=O)[C@H](CC(=O)O)NC(=O)[C@H](C)NC(=O)[C@@H]1CSCCC(=O)N2CN3CN(C2)C(=O)CCSC[C@H](NC(=O)[C@H]([C@@H](C)O)NC(=O)[C@H](Cc2c[nH]c4ccccc24)NC(=O)[C@@H]2CCCN2C(=O)[C@H](CC(=O)O)NC(=O)[C@H](CC(C)C)NC(=O)[C@H](CC(=O)O)NC(=O)[C@H](CCCNC(=N)N)NC(=O)[C@@H](NC(=O)[C@H](C)N)CSCCC3=O)C(=O)N[C@@H](CO)C(=O)N[C@@H](CO)C(=O)N[C@@H](Cc2c[nH]c3ccccc23)C(=O)N[C@@H](Cc2c[nH]c3ccccc23)C(=O)N[C@@H](CC(C)C)C(=O)N1)C(=O)N[C@@H](Cc1ccc(O)cc1)C(=O)N[C@@H](CC(=O)O)C(=O)N[C@@H](C)C(N)=O` [Example 193, A-(SEQ ID NO: 122)-ADGLYDA], on TSLP [1], the inhibition at 10 µM was found to be 47%. The Kd at TSLP [2] turned out to be 50 nM.

Turning to `CC(C)C[C@@H]1NC(=O)[C@H](Cc2c[nH]c3ccccc23)NC(=O)[C@@H]2CSCCC(=O)N3CN(CN(C3)C(=O)CCSC[C@@H](C(=O)N[C@@H](C)C(N)=O)NC(=O)[C@H](CO)NC1=O)C(=O)CCSC[C@H](NC(=O)[C@H](C)N)C(=O)N[C@@H](CC(=O)O)C(=O)N[C@@H](Cc1c[nH]c3ccccc13)C(=O)N[C@@H](Cc1c[nH]cn1)C(=O)N[C@@H](Cc1c[nH]c3ccccc13)C(=O)N[C@@H](CCC(=O)O)C(=O)N[C@@H](Cc1ccc(O)cc1)C(=O)N[C@@H](CC(=O)O)C(=O)N2` [Example 199, A-(SEQ ID NO: 144)-A], at TSLP [1], the inhibition at 10 µM is -3%. The dissociation constant Kd on TSLP [2] was found to be 81 nM.

On to `CC(C)C[C@@H]1NC(=O)[C@H](Cc2c[nH]c3ccccc23)NC(=O)[C@@H]2CSCCC(=O)N3CN(CN(C3)C(=O)CCSC[C@H](NC(=O)[C@H](CC(=O)O)NC(=O)[C@H](Cc3c[nH]cn3)NC(=O)[C@@H](N)CC(=O)O)C(=O)N[C@@H]([C@@H](C)O)C(=O)N[C@@H](Cc3c[nH]c4ccccc34)C(=O)N[C@@H](CC(N)=O)C(=O)N[C@@H](Cc3c[nH]c4ccccc34)C(=O)N[C@@H](CCC(=O)O)C(=O)N[C@@H](Cc3ccc(O)cc3)C(=O)N[C@@H](CC(=O)O)C(=O)N2)C(=O)CCSC[C@@H](C(=O)N[C@@H](C)C(N)=O)NC(=O)[C@H](CC(=O)O)NC1=O` [Example 200, DHD-(SEQ ID NO: 145)-A] (H-DHDCTWNWEYDCWLDCA-NH2; linker 4-12-16 via TATA; N-terminus and C-terminus assumed), for which the inhibition at 10 µM on TSLP [1] is -42%. Also, the Kd at TSLP [2] was found to be 68 nM.

As to “Ac-Cys-Gln-X2-Leu-Glu-Asp-Cys-Trp-X1-Gly-Phe(4-F)-Cys-NH2 (X1=L-2-amino-azidobutanoic acid, X2=L-2-aminohept-6-ynoic acid; three Cys bridged by TATA)”, the ring closure, yield after HPLC in data set [3] (triazole bond, 27-membered ring, CuSO4/Na ascorbate, H2O/tBuOH) stood at 1%.

As for “Ac-Cys-MeAla-Trp(1-Me)-Ala(tBu)-Gln-Asp-Cys-Trp(1-Me)-ADMA-Gly-Phe(4-F)-Cys-NH2?”, the ring closure, yield after HPLC in data set [3] (setting [4]) was determined as 19%.

“H-Cys-MeAla-Nal1-Ala(tBu)-Gln-Asp-Cys-Trp(1-Me)-ADMA-Gly-Phe(4-F)-Cys-dAla-NH2?”: the ring closure, yield after HPLC in data set [3] (crosslinker bond, 29-membered ring, TATA/NH4HCO3, MeCN/H2O, 0.93 mM) was 17%.

In turn, “N3CH2C(O)NH(CH2CH2O)3CH2CH2(CO)-Cys-MeAla-Trp(1-Me)-Ala(tBu)-Gln-Asp-Cys-Trp(1-Me)-ADMA-Gly-Phe(4-F)-Cys-NH2” had a ring closure, yield after HPLC in data set [3] (setting [4]) of 12%.

“n-octanoyl-Cys-MeAla-Trp(1-Me)-Ala(tBu)-Gln-Asp-Cys-Trp(1-Me)-ADMA-Gly-Phe(4-F)-Cys-NH2”: in data set [3] (setting [4]), the ring closure, yield after HPLC is 14%.
